Assay results: patent US8952024B2, “Herbicidal pyrimidone derivatives” (E I du Pont de Nemours and Company, priority 2009, dated 2015)

How the values were obtained:
Assay type in all cases: in vivo
[1] = tested on: velvetleaf (Abutilon theophrasti); test: Test A pre-/postemergence plant response
From the text: (§1) Seeds of barnyardgrass (Echinochloa crus-galli), large crabgrass (Digitaria sanguinalis), giant foxtail (Setaria faberii), morningglory (Ipomoea spp.), pigweed (Amaranthus retroflexus), velvetleaf (Abutilon theophrasti), wheat (Triticum aestivum) and corn (Zea mays) were planted into a blend of loam soil and sand and treated preemergence with a directed soil spray using test chemicals formulated in a non-phytotoxic solvent mixture which included a surfactant. At the same time these species were also treated with postemergence applications of test compounds formulated in the same manner.
(§2) Plants ranged in height from two to ten cm and were in the one- to two-leaf stage for the postemergence treatment. Treated plants and untreated controls were maintained in a greenhouse for approximately ten days, after which time all treated plants were compared to untreated controls and visually evaluated for injury. Plant response ratings, summarized in Table A, are based on a 0 to 100 scale where 0 is no effect and 100 is complete control. A dash (-) response means no test result.

[2] = tested on: morningglory (Ipomoea spp.); test: Test A pre-/postemergence plant response
From the text: as §1, §2

[3] = tested on: giant foxtail (Setaria faberii); test: Test A pre-/postemergence plant response
From the text: as §1, §2

[4] = tested on: pigweed (Amaranthus retroflexus); test: Test A pre-/postemergence plant response
From the text: as §1, §2

[5] = tested on: wheat (Triticum aestivum); test: Test A pre-/postemergence plant response
From the text: as §1, §2

[6] = tested on: barnyardgrass (Echinochloa crus-galli); test: Test A pre-/postemergence plant response
From the text: as §1, §2

[7] = tested on: large crabgrass (Digitaria sanguinalis); test: Test A pre-/postemergence plant response
From the text: as §1, §2

[8] = tested on: corn (Zea mays); test: Test A pre-/postemergence plant response
From the text: as §1, §2

[9] = tested on: ducksalad (Heteranthera limosa); test: Test B flooded paddy test; conditions: for Plant response rating, Flood, Ducksalad: 250 g ai/ha, flooded paddy test, visual rating on 0 to 100 scale (0 no effect, 100 complete control) after 13 to 15 days; for Plant response rating, Ducksalad: Flood (flooded paddy test), 62 g ai/ha, scale 0 to 100, 0 is no effect, 100 is complete control, 13 to 15 days
From the text: (§3) Plant species in the flooded paddy test consisted of rice (Oryza sativa), umbrella sedge (Cyperus difformis), ducksalad (Heteranthera limosa) and barnyardgrass (Echinochloa crus-galli) grown to the 2-leaf stage for testing. At the time of treatment, test pots were flooded with water to 3 cm above the soil surface, treated by application of test compounds directly to the paddy water, and then maintained at that water depth for the duration of the test.
(§4) Treated plants and controls were maintained in a greenhouse for 13 to 15 days, after which time all treated plants were visually evaluated and compared to controls. Plant response ratings, summarized in Table B, are based on a scale of 0 to 100 where 0 is no effect and 100 is complete control. A dash (-) response means no test result.

[10] = tested on: barnyardgrass (Echinochloa crus-galli); test: Test B flooded paddy test; conditions: for Plant response rating, Flood, Barnyardgrass: 250 g ai/ha, flooded paddy test, visual rating on 0 to 100 scale (0 no effect, 100 complete control) after 13 to 15 days; for Plant response rating, Barnyardgrass: Flood (flooded paddy test), 62 g ai/ha, scale 0 to 100, 0 is no effect, 100 is complete control, 13 to 15 days
From the text: as §3, §4

[11] = tested on: umbrella sedge (Cyperus difformis); test: Test B flooded paddy test; conditions: for Plant response rating, Flood, Sedge, Umbrella: 250 g ai/ha, flooded paddy test, visual rating on 0 to 100 scale (0 no effect, 100 complete control) after 13 to 15 days; for Plant response rating, Sedge, Umbrella: Flood (flooded paddy test), 62 g ai/ha, scale 0 to 100, 0 is no effect, 100 is complete control, 13 to 15 days
From the text: as §3, §4

[12] = tested on: rice (Oryza sativa); test: Test B flooded paddy test; conditions: for Plant response rating, Flood, Rice: 250 g ai/ha, flooded paddy test, visual rating on 0 to 100 scale (0 no effect, 100 complete control) after 13 to 15 days; for Plant response rating, Rice: Flood (flooded paddy test), 62 g ai/ha, scale 0 to 100, 0 is no effect, 100 is complete control, 13 to 15 days
From the text: as §3, §4

[13] = Postemergence, 125 g ai/ha, visual injury, 0 to 100 scale (0 no effect, 100 complete control), approx. ten days
[14] = Postemergence, 500 g ai/ha, 0 to 100 scale, 0 = no effect, 100 = complete control, approx. ten days
[15] = Preemergence, 125 g ai/ha, 0 to 100 scale, 0 = no effect, 100 = complete control
[16] = Preemergence, 500 g ai/ha, visual injury, 0 to 100 scale (0 no effect, 100 complete control), approx. ten days

| Structure (SMILES) | Velvetleaf plant response rating [1, 13] | Plant response rating, Velvetleaf [1, 14] | Plant response rating, Velvetleaf [1, 15] | Plant response rating, Velvetleaf [1, 16] | Morningglory plant response rating [2, 13] | Plant response rating, Morningglory [2, 14] | Plant response rating, Morningglory [2, 15] | Plant response rating, Morningglory [2, 16] | Foxtail, Giant plant response rating [3, 13] | Plant response rating, Foxtail, Giant [3, 14] | Plant response rating, Foxtail, Giant [3, 15] | Plant response rating, Foxtail, Giant [3, 16] | Pigweed plant response rating [4, 13] | Plant response rating, Pigweed [4, 14] | Plant response rating, Pigweed [4, 15] | Plant response rating, Pigweed [4, 16] | Wheat plant response rating [5, 13] | Plant response rating, Wheat [5, 14] | Plant response rating, Wheat [5, 15] | Plant response rating, Wheat [5, 16] | further results |
| --- | --- | --- | --- | --- | --- | --- | --- | --- | --- | --- | --- | --- | --- | --- | --- | --- | --- | --- | --- | --- | --- |
| O=C1CCCC(O)=C1C(=O)c1cnc(-c2ccc(Cl)cc2)n(-c2ccccc2)c1=O [Compound 25] | 100 | 100 | 80 | 100 | 50 | 90 | 0 | 60 | 50 | 90 | 50 | 90 | 80 | 100 | 50 | 80 | 0 | 0 | 0 | 20 | Barnyardgrass plant response rating [6, 13]: 30; Plant response rating, Barnyardgrass [6, 14]: 90; Plant response rating, Barnyardgrass [6, 15]: 20; Plant response rating, Barnyardgrass [6, 16]: 80; Crabgrass, Large plant response rating [7, 13]: 40; Plant response rating, Crabgrass, Large [7, 14]: 90; Plant response rating, Crabgrass, Large [7, 15]: 60; Plant response rating, Crabgrass, Large [7, 16]: 100; Corn plant response rating [8, 13]: 0; Plant response rating, Corn [8, 14]: 20; Plant response rating, Corn [8, 15]: 0; Plant response rating, Corn [8, 16]: 0; Plant response rating, Flood, Ducksalad [9]: 0; Plant response rating, Ducksalad [9]: 0; Plant response rating, Flood, Barnyardgrass [10]: 0; Plant response rating, Barnyardgrass [10]: 0; Plant response rating, Flood, Sedge, Umbrella [11]: 0; Plant response rating, Sedge, Umbrella [11]: 0; Plant response rating, Flood, Rice [12]: 0; Plant response rating, Rice [12]: 0 |
| Cc1cccc(C)c1-n1c(-c2ccccc2)ncc(C(=O)C2=C(O)CCCC2=O)c1=O [Compound 31] | 100 | 100 | 10 | 70 | 20 | 70 | 0 | 50 | 70 | 90 | 0 | 40 | 70 | 100 | 40 | 80 | 0 | 0 | 0 | 0 | Barnyardgrass plant response rating [6, 13]: 10; Plant response rating, Barnyardgrass [6, 14]: 80; Plant response rating, Barnyardgrass [6, 15]: 0; Plant response rating, Barnyardgrass [6, 16]: 40; Crabgrass, Large plant response rating [7, 13]: 50; Plant response rating, Crabgrass, Large [7, 14]: 90; Plant response rating, Crabgrass, Large [7, 15]: 0; Plant response rating, Crabgrass, Large [7, 16]: 90; Corn plant response rating [8, 13]: 0; Plant response rating, Corn [8, 14]: 20; Plant response rating, Corn [8, 15]: 0; Plant response rating, Corn [8, 16]: 0; Plant response rating, Flood, Ducksalad [9]: 75; Plant response rating, Ducksalad [9]: 60; Plant response rating, Flood, Barnyardgrass [10]: 0; Plant response rating, Barnyardgrass [10]: 0; Plant response rating, Flood, Sedge, Umbrella [11]: 75; Plant response rating, Sedge, Umbrella [11]: 60; Plant response rating, Flood, Rice [12]: 0; Plant response rating, Rice [12]: 0 |
